Laboratory results: PubChem BioAssay AID1845200 (Molecular Pharmacology Branch, DTP, NCI, 2023)

Test system: ASPS-1 complex tumor spheroids, viability
Assay: Anticancer human tumor ASPS-1 cell line growth inhibition;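 note: spheroids exposed to agents for 7 days after 3 days of growth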;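 for viability, T/C: 100% = DMSO vehicle treated spheroids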
Details: for IC50: curve of first compound; for viability, T/C: stronger effect = lower value
From the text: Multicellular complex tumor spheroid response to DNA repair inhibitors in combination with DNA-damaging drugs
This study explores the anticancer activities of DNA-damaging drugs and inhibitors of DNA damage repair, both as single agents and in combinations. Complex tumor spheroids comprised of malignant cells, endothelial cells and mesenchymal stem cells served as an in vitro model for human solid tumors. This model system incorporates physiologically relevant features and patient-derived or established malignant cell lines with clinically relevant genetic alterations from many tumor types. Twenty-six patient-derived or established malignant cell lines were evaluated representing sarcoma, melanoma, small cell lung cancer (SCLC), non-small cell lung cancer (NSCLC), as well as bladder, ovarian and pancreatic cancers. The concentration ranges selected for each drug and investigational agent were based upon clinically achievable concentrations if the clinical Cmax of the agent was known.
Compounds. The drugs and compounds olaparib (NSC753686), talazoparib (NSC767125), berzosertib (NSC777718), elimusertib (NSC800525), nedisertib (NSC802822), VX-984 (NSC792969), AZD-1390 (NSC803789), temozolomide (NSC362856), topotecan (NSC609699), trabectedin (NSC813783), staurosporine (NSC755774), and gemcitabine (NSC613327) were obtained from the National Cancer Institute (NCI) Developmental Therapeutics Program Chemical Repository. The FDA-approved anticancer drug set is available from the Developmental Therapeutics Program at https://dtp.cancer.gov/organization/dscb/obtaining/available_plates.htm. […] The stock solutions were prepared in dimethyl sulfoxide (DMSO, Sigma-Aldrich, St. Louis, MO, cat. D2650) at 400-fold the tested concentration and stored at -70 degrees C. Prior to their use, the stock solutions were diluted in fresh medium and the final DMSO concentration in the assay was 0.25% (v/v). All drugs and investigational agents were tested over a range starting from a high concentration at or near the clinical Cmax and decreasing in half-log increments. If the clinical Cmax for an agent had not been determined, the highest concentration tested was 10 microM.
Cell Lines. The patient-derived cancer cell (PDC) lines: 156681-154-R-J1-PDC, 283228-195-R-J1-PDC, 287954-098-R-J1-PDC, 292921-168-R-J2-PDC, 349418-098-R-PDC, 425362-245-T-J1-PDC, 556581-035-R-J1-PDC, and BL0293-F563-PDC were received from the NCI Patient-Derived Models Repository (PDMR, https://pdmr.cancer.gov). The established cell lines HS-SY-2 (RRID:CVCL_8719), MPNST, and SYO-1 (RRID:CVCL_7146) were obtained from the Sloan Kettering Institute. The alveolar soft parts sarcoma cell line ASPS-1 (RRID:CVCL_S738) was established at the NCI and grown from internal seed stocks. The following established cell lines were purchased from the American Type Culture Collection (ATCC, Manassas, VA): G-401 (ATCC, cat. CRL-1441, RRID:CVCL_0270), SW982 (ATCC, cat. HTB-93, RRID:CVCL_1734), VA-ES-BJ (ATCC, cat. CRL-2138, RRID:CVCL_1785), NCI-H719 (ATCC, cat. CRL-5837, RRID:CVCL_1582), NCI-H196 (ATCC, cat. CRL-5823, RRID:CVCL_1509), NCI-H841 (ATCC, cat. CRL-5845, RRID:CVCL_1595), NCI-H1618 (ATCC, cat. CRL-5879, RRID:CVCL_1480), NCI-H1876 (ATCC, cat. CRL-5902, RRID:CVCL_1503), DMS 114 (ATCC, cat. CRL-2066; RRID:CVCL_1174), NCI-H211 (ATCC, cat. CRL-5824; RRID:CVCL_1529), and SW 1271 (ATCC, cat. CRL-2177, RRID:CVCL_1716). The small cell lung cancer cell line COR-L88 was purchased from Sigma-Aldrich (cat. 92031917-1VL, RRID:CVCL_1141). The non-small cell lung cancer cell lines NCI-H226 (RRID:CVCL_1544) and NCI-H322M (RRID:CVCL_1557) were established at the NCI and grown from internal seed stocks. Pooled donor human umbilical vein endothelial cells (HUVEC, Lonza, cat. CC-2519) and human mesenchymal stem cells (hMSC, Lonza, cat. PT-2501) were purchased from Lonza (Walkersville, MD).
Cell Culture. All cells were maintained in an incubator at 37 degrees C and 5% CO2 with 95% humidity. […]

[1] = second compound 0.003 µM, first compound 0.00949 µM
[2] = second compound 0.003 µM, first compound 0.03 µM
[3] = second compound 0.003 µM, first compound 0.0949 µM
[4] = second compound 0.003 µM, first compound 0.3 µM
[5] = second compound 0.003 µM, first compound 0.949 µM
[6] = second compound 0.003 µM, first compound 3 µM
[7] = second compound 0.00949 µM, first compound 0.00949 µM
[8] = second compound 0.00949 µM, first compound 0.03 µM
[9] = second compound 0.00949 µM, first compound 0.0949 µM
[10] = second compound 0.00949 µM, first compound 0.3 µM
[11] = second compound 0.00949 µM, first compound 0.949 µM
[12] = second compound 0.00949 µM, first compound 3 µM
[13] = second compound 0.03 µM, first compound 0.00949 µM
[14] = second compound 0.03 µM, first compound 0.03 µM
[15] = second compound 0.03 µM, first compound 0.0949 µM
[16] = second compound 0.03 µM, first compound 0.3 µM
[17] = second compound 0.03 µM, first compound 0.949 µM
[18] = second compound 0.03 µM, first compound 3 µM
[19] = second compound 0.0949 µM, first compound 0.00949 µM
[20] = second compound 0.0949 µM, first compound 0.03 µM
[21] = second compound 0.0949 µM, first compound 0.0949 µM
[22] = second compound 0.0949 µM, first compound 0.3 µM
[23] = second compound 0.0949 µM, first compound 0.949 µM
[24] = second compound 0.0949 µM, first compound 3 µM
[25] = second compound 0.3 µM, first compound 0.00949 µM
[26] = second compound 0.3 µM, first compound 0.03 µM
[27] = second compound 0.3 µM, first compound 0.0949 µM
[28] = second compound 0.3 µM, first compound 0.3 µM
[29] = second compound 0.3 µM, first compound 0.949 µM
[30] = second compound 0.3 µM, first compound 3 µM

| Structure (SMILES) | IC50 (second compound 0.003 µM) | IC50 (second compound 0.00949 µM) | IC50 (second compound 0.03 µM) | IC50 (second compound 0.0949 µM) | IC50 (second compound 0.3 µM) | viability, T/C [3] | viability, T/C [4] | viability, T/C [5] | viability, T/C [6] | viability, T/C [9] | viability, T/C [10] | viability, T/C [11] | viability, T/C [12] | viability, T/C [15] | viability, T/C [16] | viability, T/C [17] | viability, T/C [18] | viability, T/C [21] | viability, T/C [22] | viability, T/C [23] | further results |
| --- | --- | --- | --- | --- | --- | --- | --- | --- | --- | --- | --- | --- | --- | --- | --- | --- | --- | --- | --- | --- | --- |
| CNCc1ccc(-c2cc(-c3nc(-c4ccc(S(=O)(=O)C(C)C)cc4)cnc3N)on2)cc1 + CC[C@@]1(O)C(=O)OCc2c1cc1n(c2=O)Cc2cc3c(CN(C)C)c(O)ccc3nc2-1 | 478 nM | 412 nM | 256 nM | 19.6 nM | < 9.49 nM | 98.8% | 60.8% | 30.8% | 5.94% | 107% | 54.5% | 30.2% | 5.23% | 90.5% | 41.9% | 25.3% | 10.3% | 41.8% | 29% | 22.4% | viability, T/C [1]: 102%; viability, T/C [2]: 103%; viability, T/C [7]: 104%; viability, T/C [8]: 108%; viability, T/C [13]: 97.1%; viability, T/C [14]: 105%; viability, T/C [19]: 54.1%; viability, T/C [20]: 45.6%; viability, T/C [24]: 2.96%; viability, T/C [25]: 44.9%; viability, T/C [26]: 38.3%; viability, T/C [27]: 26.9%; viability, T/C [28]: 23.4%; viability, T/C [29]: 23.7%; viability, T/C [30]: 7.06% |
| Cn1ncnc1[C@H]1c2n[nH]c(=O)c3cc(F)cc(c23)N[C@@H]1c1ccc(F)cc1 + CC[C@@]1(O)C(=O)OCc2c1cc1n(c2=O)Cc2cc3c(CN(C)C)c(O)ccc3nc2-1 | > 3000 nM | > 3000 nM | 2610 nM | < 9.49 nM | < 9.49 nM | 101% | 98.4% | 98.8% | 76.5% | 100% | 95.7% | 86.6% | 69.5% | 67.4% | 61.4% | 56.6% | 49% | 43.5% | 38.2% | 38% | viability, T/C [1]: 97.5%; viability, T/C [2]: 98.3%; viability, T/C [7]: 103%; viability, T/C [8]: 92%; viability, T/C [13]: 78.4%; viability, T/C [14]: 75.9%; viability, T/C [19]: 47%; viability, T/C [20]: 40.9%; viability, T/C [24]: 34.1%; viability, T/C [25]: 46.9%; viability, T/C [26]: 41.9%; viability, T/C [27]: 40%; viability, T/C [28]: 41.3%; viability, T/C [29]: 40.1%; viability, T/C [30]: 39% |
| O=C(c1cc(Cc2n[nH]c(=O)c3ccccc23)ccc1F)N1CCN(C(=O)C2CC2)CC1 + CC[C@@]1(O)C(=O)OCc2c1cc1n(c2=O)Cc2cc3c(CN(C)C)c(O)ccc3nc2-1 | > 30000 nM | > 30000 nM | > 30000 nM | < 94.9 nM | < 94.9 nM | 114% | 107% | 101% | 105% | 102% | 106% | 103% | 105% | 84.9% | 88.8% | 90.3% | 77.4% | 45.8% | 50% | 49% | viability, T/C (second compound 0.003 µM, first compound 9.49 µM): 104%; viability, T/C (second compound 0.003 µM, first compound 30 µM): 97.3%; viability, T/C (second compound 0.00949 µM, first compound 9.49 µM): 101%; viability, T/C (second compound 0.00949 µM, first compound 30 µM): 93.5%; viability, T/C (second compound 0.03 µM, first compound 9.49 µM): 71.4%; viability, T/C (second compound 0.03 µM, first compound 30 µM): 66.1%; viability, T/C [24]: 48.6%; viability, T/C (second compound 0.0949 µM, first compound 9.49 µM): 40.1%; viability, T/C (second compound 0.0949 µM, first compound 30 µM): 49.7%; viability, T/C [27]: 49.1%; viability, T/C [28]: 45.4%; viability, T/C [29]: 43.1%; viability, T/C [30]: 44.2%; viability, T/C (second compound 0.3 µM, first compound 9.49 µM): 35.6%; viability, T/C (second compound 0.3 µM, first compound 30 µM): 42.2% |
